According to patent publication US20260199270A1, “METHODS FOR TREATING NEURODEGENERATIVE DISORDERS WITH TRAMIPROSATE” (Alzheon, Inc., priority 2022, published 2026):
Entries after “also recorded” stand apart in the source; their conditions may differ.

Columns and labels:
Format in all cases: in vivo, human
plasma p-tau181 = experiment: Phase 2 trial of ALZ-801 in early Alzheimer's disease: plasma p-tau181; conditions: 52 weeks; 265 mg ALZ-801 orally twice daily; APOE4+ early AD subjects
Procedure: FIG. 3 illustrates the effect on plasma p-tau181 (change from baseline) following a 52 week treatment with 265 mg ALZ-801 administered orally twice daily to subjects who are APOE4+ and have early AD.
(§1) Evaluation of disease modifying effects from phase 2 trial of ALZ-801 (valiltramiprosate) in subjects with early Alzheimer's disease were conducted. The study enrolled 84 patients, with early AD, who carry the APOE4/4 or APOE3/4 genotype and have an MMSE score ranging from 22 to 30 (CDR-G 0.5 or 1). Each patient received 265 mg ALZ-801 twice daily. The average MMSE score of the subjects was 26 (mean age 69 years, 52% female). Subjects were either amyloid PET positive or A+/T+ on CSF assays. CSF criteria were: Ratio of Aβ42/40×10<0.61, and p-tau181>61 pg/ml. CSF was evaluated at 52 weeks, and plasma biomarkers at every visit.
(§2) These effects were associated with benefits on a composite cognitive outcome that tests memory and learning. […] The HV preservation effects correlate with cognitive benefits (Spearman's coefficient r=0.27, p=0.02).

plasma Aβ42 = experiment: Phase 2 trial of ALZ-801 in early Alzheimer's disease: plasma Aβ42; conditions: 52 weeks; 265 mg ALZ-801 orally twice daily; APOE4+ early AD subjects
Procedure: FIG. 2 illustrates the effect on plasma Abeta42 (change from baseline) following a 52 week treatment with 265 mg ALZ-801 administered orally twice daily to subjects who are APOE4+ and have early AD.
as §1, §2

[1] = Phase 2 trial of ALZ-801: HV atrophy vs matched external control group from ADNI-1; conditions: compared to matched external control group from the ADNI-1 observational study; 265 mg twice daily
Procedure: as §1, §2

[2] = Phase 2 trial of ALZ-801: safety, ARIA and macrohemorrhages; conditions: 1 year of ALZ-801 treatment
Procedure: This is further supported by the early significant decrease in the neuronal injury marker plasma p-tau, which indicates decreased amyloid-induced neuronal stress. See e.g., FIG. 3.
as §1, with “visit. […]” for “visit.”

plasma Aβ40 = experiment: Phase 2 trial of ALZ-801 in early Alzheimer's disease: plasma Aβ40; conditions: 52 weeks; 265 mg ALZ-801 orally twice daily; APOE4+ early AD subjects
Procedure: FIG. 1 illustrates the effect on plasma Abeta40 (change from baseline) following a 52 week treatment with 265 mg ALZ-801 administered orally twice daily to subjects who are APOE4+ and have early AD.
as §1, §2

Structure (SMILES): CC(C)[C@H](N)C(=O)NCCCS(=O)(=O)O [ALZ-801, valyl-3-amino-1-propanesulfonic acid]
- reduction of plasma p-tau compared to baseline (plasma p-tau181): 41%
- reduction of plasma Aβ42 compared to baseline (plasma Aβ42): ~ 5%
- reduction of HV atrophy [1]: 19-23%
- events of vasogenic edema / amyloid-related imaging abnormalities (ARIA-E; b52: ARIA-E or ARIA-H) [2]: no events
- macrohemorrhages (bleeds larger than 1 cm in diameter) [2]: no events; also recorded: no macro-hemorrhages
- reduction of plasma Aβ40 compared to baseline (plasma Aβ40): ~ 5%
